Reference: patent US8334413B2, “Topical compositions and methods for epithelial-related conditions” (Signum Biosciences, Inc., priority 2004, dated 2012)

Assays:
mouse ear [1] = assay: AFC in acetone alone, mouse ear edema (irritancy); type: in vivo, mice; conditions: topical, dose up to 32 mg/20 μl, 5.5 hours
Experimental: The AFC inventive compositions were spread evenly with a pipette tip. Each contralateral ear was treated with only acetone in the same manner. The mice then were returned to their cages. After 5.5 hours, mice were sacrificed and 6 mm punches were taken from each ear and weighed. Edema response was expressed as the percent increase in the treated ear's weight over the untreated (acetone, vehicle only) ear.

TPA-induced edema = assay: TPA-induced edema, murine ear acute contact irritation model; type: in vivo, mice; conditions: 2 μg TPA/20 μl acetone, AFC 15 min later, topical, 5.5 hours
Experimental: In order to assess the effects of the inventive composition on TPA-induced edema, 2 μg of TPA in 20 μl acetone was applied with the aid of a micropipetter onto both ears of each of 6 mice. The mice were returned to their cages. […] 20 μl of an acetone vehicle was applied similarly to the left ear of each mouse as an internal negative control. After treatment, the mice were returned to their cages for 5.5 hours. The mice were sacrificed by cervical dislocation. The ears were immediately removed at their base and a 6 mm diameter punch biopsy was taken from the center of each ear. The ear punch was weighed on an analytical balance for edema measurements as described above.

TPA-induced MPO activity [2] = assay: TPA-induced neutrophil infiltration, MPO assay; type: in vivo, Swiss Webster male mice
Experimental: Neutrophil-infiltration Assay: Swiss Webster male mice (n=6) were treated with 1 μg/20 μl of TPA as described above in order to assess whether or not TPA induced neutrophil infiltration. Acetone was used as a control. TPA was administered as described above. The mice were returned to their cages for 24 hrs to allow neutrophil infiltration, then sacrificed by cervical dislocation. The ears were immediately removed for punch biopsy, and punches were fixed for subsequent histological analysis and MPO enzymatic assay.
MPO Assay: This assay measures myeloperoxidase, (“MPO”) which is packaged in the primary granules of mature granulocytes including the neutrophil. Thus, the amount of MPO in the ear is proportional to the number of infiltrating neutrophils.
MPO enzyme activity of the ears was assayed using the technique detailed by Griffiths and coworkers (1988). To conduct the assay, each ear was homogenized in 1.0 ml of cetyltrimethylammonium bromide buffer for 5 sec using a Pro 200 tissue blender (Pro Scientific, Inc., Oxford, Conn.) at setting 5. These samples were then centrifuged for 5 minutes at 15,000 rpm in a 5415 Eppendorf microcentrifuge. Triplicate 20 microliter aliquots of supernatant were added to 200 microliters of reaction mixture (1.25 ml 1M Potassium Phosphate, 4.175 mg o-dianisidine dihydrochloride and 5 μl of 1% peroxide in a final volume of 25 ml). Absorbance at 450 nm was then measured at room temperature at three 60 second intervals using Bio-Kinetics Reader EL 312E (Bio-Tek Instruments). Activity, which was determined by a Bradford assay of the homogenate (BioRad Protein Assay, BioRad Laboratories, Inc. Hercules, Calif.) was expressed as units MPO per mg tissue +/−standard error.
(§1) Two micrograms of TPA in 20 μl of acetone was applied onto both ears of each mouse to induce neutrophil infiltration. […] After 24 hours, the mice were sacrificed.

[3] = test system: TPA-induced neutrophil infiltration; assay: TPA-induced neutrophil infiltration, neutrophil counting assay (histology); type: in vivo, mice; conditions: 24 hours
Experimental: Neutrophil Counting Assay: Ear punches buffered in 10% formalin in PBS at ambient temperature for a minimum of 24 hrs. were sectioned and stained with Hematoxilin & Eosin (“H&E”). The number of neutrophils, identified by their multilobular nuclei, in 6 randomly 100× magnified fields distributed along the length of the ear were manually counted. The results are expressed as the average number per field for each ear.
as §1

TPA-induced MPO activity [4] = assay: TPA-induced MPO activity at different application times; type: in vivo, mice; conditions: 1 μg/20 μl TPA; 1 mg/20 μl AFC at various times before and after TPA
Experimental: In this example, both ears of six mice were treated with a 1 μg/20 μl dose of TPA in acetone.

TPA-induced MPO activity [5] = assay: TPA-induced MPO activity in the contralateral vehicle-treated ear (systemic effect); type: in vivo, mice
Experimental: These included dexamethasone, a steroid, and indomethasone, a non-steroid anti-inflammatory drug, which targets cycloxygenases. The action of AFC in this model was, therefore, compared to that of dexamethasone and indomethasone. Each of these agents were tested using the same protocols used to test AFC.

TPA-induced erythema = assay: TPA-induced erythema, mouse ear; type: in vivo; conditions: 1 μg/20 μl TPA, 1 mg/20 μl AFC after 1 hour, photo 23 hours later
Experimental: For this example, both ears of a mouse were treated with a 1 μg/20 μl dose of TPA in acetone. […] The photo was taken 23 hours later using a Nikon D70 digital camera.

human skin = assay: SDS irritant patch test on human skin, AFC pre-applied; type: in vivo; conditions: 140 mM AFC aqueous formulation pre-applied
Experimental: An irritant was applied to the middle of the upper back of a human subject using a 0.2 ml 20% SDS solution and a Hill-Top Chamber patch with Webril pad. […] Patches 1a and 2a were removed after 2 hours, while patches 1b and 2b were removed after 2 hours and 30 minutes. High levels of irritation were visible in patch sites 2a and 2b.

chronic irritation = assay: Chronic irritation by multiple TPA applications, mouse ear; type: in vivo, mice; conditions: AFC in acetone, applied 6 hr apart on days 7, 8 and 9; TPA days 0, 2, 4, 7, 9
Experimental: The effectiveness of the inventive compositions against established chronic irritation is assayed using a modification of the technique of Stanley P L et al., Mouse skin inflammation induced by multiple topical application 12-O-tetradeconoyphorbol-13-acetate. Skin Pharmacol. 1991, 4: p 262-271. (1991). Both ears of each mouse are treated with TPA in acetone, as above, in a series of 5 applications on the mornings of days 0, 2, 4, 7, and 9. […] Punches of the ears are taken the afternoon of the tenth day and prepared, as above, for the edema assay and the infiltration of neutrophils. Total granulocyte infiltration is assayed by measuring MPO activity. Macrophage infiltration is determined immunocytologically using the MOMA-2 antibody. Hydrocortisone, which is known to reduce inflammatory edema granulation infiltration and microphage infiltration, is used as a positive control.

[6] = test system: delayed-type hypersensitivity; assay: DNFB delayed-type hypersensitivity, mouse ear; type: in vivo, mice; conditions: AFC 0.5 hr before or 15 min after DNFB challenge, assay 5 hr later
Description: The mouse ear model, described above, is modified to assay the effect of anti-inflammatory agents in an immune based inflammation model (See Tramposch, K. M., Skin Inflammation, in In Vivo Models of Inflammation, M. L. Morgan D W, Editor. 1999, Birkhauser Verlag. p. 179-20 and Chapman, J. R., Z. Ruben, and G. M. Butchko, Histology of and quantitative assays for oxazolone-induced allergic contact dermatitis in mice. Am J Dermatopathol, 1986. 8(2): p. 130-8). In this model, a sensitizing dose of dinitrofluorobenzene (“DNFB”) 1-3% in acetone is applied topically according to a modification of the method by Back et al. (See Back, O. and T. Egelrud, Topical glucocorticoids and suppression of contact sensitivity. A mouse bioassay of anti-inflammatory effects. Br J Dermatol, 1985. 112(5): p. 539-45 and Bailey, S. C., et al., A novel contact hypersensitivity model for rank-ordering formulated corticosteroids. Inflamm Res, 1995. 44 Suppl 2: p. S162-3) to the shaved bellies of mice to elicit an immune response. Mice are challenged on day 5 with 40 μl of 0.5-1% DNFB to each ear. […] The ears are assayed for edema or neutrophil infiltration 5 hr later. Dexamethasone is used as a positive control. Five days later, the ears are challenged topically with a dose of DNFB insufficient to produce contact irritation. Simultaneously, cell infiltration studies are initiated. […]

[7] = biological target: membrane-associated polyisoprenoid methyl transferase (Homo sapiens, UniProt O60725); conditions: cited from earlier work
Sequence of membrane-associated polyisoprenoid methyl transferase (O60725 whole entry): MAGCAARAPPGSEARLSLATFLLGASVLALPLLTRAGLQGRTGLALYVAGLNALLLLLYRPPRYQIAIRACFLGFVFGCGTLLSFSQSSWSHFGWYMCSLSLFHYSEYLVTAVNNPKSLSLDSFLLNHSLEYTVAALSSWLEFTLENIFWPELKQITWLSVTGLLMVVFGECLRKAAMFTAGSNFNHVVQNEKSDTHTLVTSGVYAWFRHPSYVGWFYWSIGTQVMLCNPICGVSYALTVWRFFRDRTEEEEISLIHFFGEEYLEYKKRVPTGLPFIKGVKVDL

[8] = test system: neutrophil, macrophage, and platelet responses; conditions: cited from earlier work
mouse ear [9] = assay: TPA dose response, mouse ear edema; type: in vivo, Swiss Webster mice; conditions: TPA 0.25 to 1.75 μg/20 μl in acetone, topical, 5.5 hours, 6 mm ear punch
Experimental: Increasing concentrations of TPA dissolved in acetone were applied with the aid of a micropipetter onto the right ear of each of the five 6-8 week old, male Swiss Webster mice used in this analysis. Ten microliters were spread evenly onto the inner and outer surfaces using the pipette tip. The mice were then returned to their cages. The contralateral ear was treated only with acetone. After 5.5 hours, the mice were sacrificed and 6 mm punches were taken from each ear and weighed. Edema response was expressed as a percent increase in the treated ear's weight over the untreated ear. The dose response curve, as well as an ED50 value, was determined using the Lichtfield method (Lichtfield J T W. F., A simplified method of evaluating dose-effect experiments, Journal of Pharmacology and Experimental Therapeutics, 1948, 96: P. 99-113).

[10] = 2 μg TPA/20 μl acetone, AFC 15 min later, topical, 24 hours

CC(=O)N[C@@H](CSCC=C(C)CCC=C(C)CCC=C(C)C)C(=O)O (stereo in doubt) [AFC, N-acetyl-S-farnesylcysteine]
edema response (ear punch biopsy weight), AFC alone (mouse ear [1]): no effect
maximum reduction in TPA-induced edema (TPA-induced edema): 80%
ED50, inhibition of TPA-induced MPO activity (TPA-induced MPO activity [2]; [10]): 0.065 mg/20 μl
inhibition of TPA-induced increases in MPO activity (TPA-induced MPO activity [2]; [10]): > 80%
inflammation activity of AFC on its own in the Neutrophil-Infiltration Assay (TPA-induced MPO activity [2]; AFC alone): no inflammation activity of its own
reduction in dermal neutrophils (counted) ([3]; 1.0 mg/20 μl AFC, TPA irritation, statistically significant): 80%
neutrophils observed histologically in AFC treated ear ([3]; TPA pretreated ears, H&E): substantial reduction of neutrophils
effect on TPA-induced MPO activity versus time of application (TPA-induced MPO activity [4]): efficacy of AFC treatment prior to, simultaneous with, or after exposure of skin to TPA
MPO activity in contralateral vehicle-treated ear (systemic effect) (TPA-induced MPO activity [5]; topical, increasing concentration on the other ear, TPA on both ears): no effect
TPA-induced erythema (TPA-induced erythema): observed an effect
skin irritation at patch site 1a (human skin; 20% SDS patch removed after 2 hours): normal skin
skin irritation at patch site 1b (human skin; 20% SDS patch removed after 2 hours and 30 minutes): mild response
chronic edema (chronic irritation): reduces
neutrophil number (chronic irritation) (chronic irritation): reduces
edema (DNFB challenge) [6]: effective in reducing
neutrophil infiltration (DNFB challenge) [6]: effective in reducing
inhibition of membrane-associated polyisoprenoid methyl transferase [7]: inhibit
neutrophil, macrophage, and platelet responses in vitro [8]: block some

C[C@@H]1C[C@H]2[C@@H]3CCC4=CC(=O)C=C[C@]4(C)[C@@]3(F)[C@@H](O)C[C@]2(C)[C@@]1(O)C(=O)CO [dexamethasone]
MPO activity in contralateral vehicle-treated ear (systemic effect) (TPA-induced MPO activity [5]; mouse, in vivo): increasing inhibition of MPO activity

COc1ccc2c(c1)c(CC(=O)O)c(C)n2C(=O)c1ccc(Cl)cc1 [indomethasone]
MPO activity in contralateral vehicle-treated ear (systemic effect) (TPA-induced MPO activity [5]; mouse, in vivo): increasing inhibition of MPO activity

tetradecanoylphorbol acetate [TPA]
maximum increase in ear weight (mouse ear [9]): approximately 150 % of the acetone-treated ear
